Drawing on patent US20120251551A1, “Substituted (Heteroarylmethyl)thiohydantoins” (BAYER PHARMA AKTIENGESELLSCHAFT, priority 2009, published 2012), this text covers EC50 and IC50 for 17 molecules.

Where a chain is given by its changes, count along the chain named.

In assay [1] the target is T1, wild-type human androgen receptor (Homo sapiens, UniProt P10275).
T1 construct: expressed in transfected cells
T1 sequence (P10275 1-920): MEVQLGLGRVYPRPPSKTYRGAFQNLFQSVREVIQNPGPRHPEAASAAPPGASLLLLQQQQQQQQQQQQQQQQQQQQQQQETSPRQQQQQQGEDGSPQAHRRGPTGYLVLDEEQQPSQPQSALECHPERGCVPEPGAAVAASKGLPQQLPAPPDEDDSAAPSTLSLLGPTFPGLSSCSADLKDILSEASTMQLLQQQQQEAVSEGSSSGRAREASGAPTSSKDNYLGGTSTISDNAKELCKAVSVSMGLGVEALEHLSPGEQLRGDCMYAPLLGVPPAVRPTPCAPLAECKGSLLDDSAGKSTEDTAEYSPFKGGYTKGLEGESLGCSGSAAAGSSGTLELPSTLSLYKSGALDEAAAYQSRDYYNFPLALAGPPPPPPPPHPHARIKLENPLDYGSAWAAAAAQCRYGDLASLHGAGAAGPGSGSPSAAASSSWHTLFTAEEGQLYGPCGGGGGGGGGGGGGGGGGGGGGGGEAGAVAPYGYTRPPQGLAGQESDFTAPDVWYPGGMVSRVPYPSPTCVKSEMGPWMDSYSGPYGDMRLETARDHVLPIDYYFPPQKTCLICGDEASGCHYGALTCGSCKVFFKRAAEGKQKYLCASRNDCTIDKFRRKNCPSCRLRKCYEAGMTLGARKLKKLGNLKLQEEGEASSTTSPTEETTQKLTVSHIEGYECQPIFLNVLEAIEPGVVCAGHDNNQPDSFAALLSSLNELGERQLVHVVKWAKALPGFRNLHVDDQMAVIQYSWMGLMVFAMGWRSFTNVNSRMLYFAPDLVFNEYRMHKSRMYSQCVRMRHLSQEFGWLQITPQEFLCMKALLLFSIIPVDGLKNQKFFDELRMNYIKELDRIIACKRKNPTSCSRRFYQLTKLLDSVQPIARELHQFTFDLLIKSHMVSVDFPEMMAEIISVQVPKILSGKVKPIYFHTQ
Kind of assay: Cell-based transactivation assay for wild-type human androgen receptor (PC-3 cells, MMTV-luciferase reporter).
Experimental: Cell-Based Transactivation Assay for Wild-Type Human Androgen Receptor
PC-3 cells (Kaighn et al., Invest. Urol. 17:16-23, 1979) stably transfected with the human androgen receptor (Swiss-Prot Acc. No. P10275, Entry Version 159, Sequence Version 2) and a reporter plasmid based on pGL4.14 (#E6691, Promega Corporation, Madison, Wis., USA) containing the MMTV promoter (Cato et al., EMBO J. 6:363-8, 1987) were used. They were grown in 5% charcoal-stripped medium and seeded at a concentration of 1000 cells per well in a 384-well plate. For determination of antagonistic activity, the plate additionally contained the compound to be tested at a concentration range varying from 5.12×10^−12 to 1×10^−5 M. The assay was performed in presence of 1×10^−10 R1881 (also known as methyltrienolone). After overnight incubation at 37° C. in a 5% CO2 atmosphere, 15 μl of Steady Glo Lysis and Detection reagent (Steady Glo Luciferase assay system E2550 from Promega Corporation. Madison, Wis., USA) were added. IC50 was calculated for anti-androgenic activity as well as percentage inhibition in presence of 2 μM compound in comparison to non-stimulated luciferase signal. Agonistic activity was determined using the same concentration range of compound in the absence of R1881 by measuring Luciferase activity as above. EC50 was calculated for androgenic activity. Assay/read plates were used (Polystyrol; 384, NV-white cell culture plates; Perkin Elmer).

The target of assay [2] is T2, human androgen receptor W741L mutant (Homo sapiens, UniProt P10275, W742L).
T2 construct: expressed in transfected cells; host or cells: PC-3 cells, transient transfection with a pSG5-derived plasmid
T2 sequence (P10275 1-920 W742L): T1 sequence (P10275 1-920) with W742L
Briefly: Cell-based transactivation assay for human androgen receptor mutant W741L.
Experimental: Cell-Based Transactivation Assay for Human Androgen Receptor Mutant W741L or W741C
PC-3 cells (Kaighn et al., Invest. Urol. 17:16-23, 1979) were grown in 5% charcoal-stripped medium and seeded at a concentration of 10000 cells per well in a 96-well plate. They were transiently transfected with a pSG5-derived plasmid (#216201 from Stratagene, La Jolla, Calif., USA) coding for the human androgen receptor W741L or W741C mutant Mara et al., Cancer Research, 63: 149-153, 2003) and an MMTV-Luciferase reporter plasmid based on pGL4.14 14 (#E6691, Promega Corporation, Madison, Wis., USA). The compound to be tested was added at a concentration range varying from 1×10^−9 to 1×10 M together with 1×10^−10 R1881. After 24 h incubation at 37° C. in a 5% CO2 atmosphere, 100 μl of Steady Glo Lysis and Detection reagent (Steady Glo Luciferase assay system E2550 from Promega Corporation. Madison, Wis., USA) were added. Antagonistic activity was determined by measuring Luciferase activity in a Victor 3 Luminometer (PerkinElmer, Waltham, Mass., USA) using the Steady Glo Luciferase Assay (E2550, Promega). IC50 values were calculated for anti-androgenic activity.

Assay [3] relates to VCaP cells. Kind of assay: Proliferation assay with VCaP cells. It is filed as cell-based. The note with it: Homo sapiens, 168 h, R1881 (1×10^−10) stimulated growth, day 7, read-out: Antiproliferative activity VCaP IC50. Here is the method:
Proliferation Assay with VCaP Cells
VCaP cells ((Korenchuk et al., In Vivo 15: 163-168, 2001)) were seeded at 16 000 cells/well in 96-well plates in DMEM (F0445, Biochrom AG, Berlin, Germany) with phenol red supplemented with 10% charcoal-stripped serum. After 1 day, the cells were treated with R1881 (1×10^−10) and compound (day 0). Cell number was determined by Alamar Blue (DAL1100, Invitrogen, Life Technologies, Lohne, Germany) staining (2.5 h) at day 0 and day 7. Fluorescence was determined in Victor3 (Excitation 530 nm; emission 590 nm). Stimulated growth was defined as the signal measured at day 7 for cells treated only with R1881. Basal level was defined as the signal measured at day 7 for cells grown without R1881.

What is called EC50 is the concentration needed to bring the measured effect to its halfway point. The molecule `COCCOc1ccc(CN2C(=S)N(c3ccc(C#N)c(C(F)(F)F)c3)C(=O)C2(C)C)cn1` [Example 11, 4-(3-{[6-(2-Methoxyethoxy)pyridin-3-yl]methyl}-4,4-dimethyl-5-oxo-2-thioxoimidazolidin-1-yl)-2-(trifluoromethyl)benzonitrile] gave a 50% effective concentration (EC50) in assay [1] of more than 10000 nM.

Turning to `CN1CCCN(c2ccc(CN3C(=S)N(c4ccc(C#N)c(C(F)(F)F)c4)C(=O)C3(C)C)cn2)CC1` [Example 12, 4-(4,4-Dimethyl-3-{[6-(4-methyl-1,4-diazepan-1-yl)pyridin-3-yl]methyl}-5-oxo-2-thioxoimidazolidin-1-yl)-2-(trifluoromethyl)benzonitrile], the EC50 in assay [1] was more than 10000 nM. The same measure, in the same setting: as for `CC1(C)C(=O)N(c2ccc(C#N)c(C(F)(F)F)c2)C(=S)N1Cc1ccc(N2CCC(CO)CC2)nc1` [Example 14, 4-[3-({6-[4-(Hydroxymethyl)piperidin-1-yl]pyridin-3-yl}methyl)-4,4-dimethyl-5-oxo-2-thioxoimidazolidin-1-yl]-2-(trifluoromethyl)benzonitrile], the figure is 6000 nM. By IC50 is commonly meant the concentration that inhibits the measured activity by half. Take `CC1(C)C(=O)N(c2ccc(C#N)c(C(F)(F)F)c2)C(=S)N1Cc1ccc(N2CCNC2=O)nc1` [Example 25, 4-(4,4-Dimethyl-5-oxo-3-{[6-(2-oxoimidazolidin-1-yl)pyridin-3-yl]methyl}-2-thioxoimidazolidin-1-yl)-2-(trifluoromethyl)benzonitrile]: the EC50 in assay [1] was more than 10000 nM. In addition, the IC50 in assay [2] came to 246 nM. For `CC1(C)C(=O)N(c2ccc(C#N)c(C(F)(F)F)c2)C(=S)N1Cc1ccc(N=[S@](C)(=O)c2ccccc2)nc1` [Example 26, (R)-4-{4,4-Dimethyl-3-[(6-{[methyl(oxido)phenyl-λ^6-sulfanylidene]amino}pyridin-3-yl)methyl]-5-oxo-2-thioxoimidazolidin-1-yl}-2-(trifluoromethyl)benzonitrile], in that order: more than 10000 nM and 211 nM.

For the molecule `Cc1ccnn1-c1ccc(CN2C(=S)N(c3ccc(C#N)c(C(F)(F)F)c3)C(=O)C2(C)C)cn1` [Example 27, 4-(4,4-Dimethyl-3-{[6-(5-methyl-1H-pyrazol-1-yl)pyridin-3-yl]methyl}-5-oxo-2-thioxoimidazolidin-1-yl)-2-(trifluoromethyl)benzonitrile], the concentration for a half-maximal effect (EC50) in assay [1] is more than 10000 nM.

`CC1(C)C(=O)N(c2ccc(C#N)c(C(F)(F)F)c2)C(=S)N1Cc1ccc(OCC(F)(F)CO)nc1` [Example 28, 4-(3-{[6-(2,2-Difluoro-3-hydroxypropoxy)pyridin-3-yl]methyl}-4,4-dimethyl-5-oxo-2-thioxoimidazolidin-1-yl)-2-(trifluoromethyl)benzonitrile] had an EC50 in assay [1] of more than 10000 nM. In turn, `CC1(C)C(=O)N(c2ccc(C#N)c(C(F)(F)F)c2)C(=S)N1Cc1ccc(-n2ccnn2)nc1` [Example 29, 4-(4,4-Dimethyl-5-oxo-2-thioxo-3-{[6-(1H-1,2,3-triazol-1-yl)pyridin-3-yl]methyl}imidazolidin-1-yl)-2-(trifluoromethyl)benzonitrile] registered an EC50 in assay [1] of more than 10000 nM.

Molecule `CC1(C)C(=O)N(c2ccc(C#N)c(C(F)(F)F)c2)C(=S)N1Cc1ccc(-n2nccn2)nc1` [Example 30, 4-(4,4-Dimethyl-5-oxo-2-thioxo-3-{[6-(2H-1,2,3-triazol-2-yl)pyridin-3-yl]methyl}imidazolidin-1-yl)-2-(trifluoromethyl)benzonitrile] returned an EC50 in assay [1] of more than 10000 nM. As for `CC1(C)C(=O)N(c2ccc(C#N)c(C(F)(F)F)c2)C(=S)N1Cc1ccc(-n2cnnn2)nc1` [Example 31, 4-(4,4-Dimethyl-5-oxo-3-{[6-(1H-tetrazol-1-yl)pyridin-3-yl]methyl}-2-thioxoimidazolidin-1-yl)-2-(trifluoromethyl)benzonitrile], in assay [1], the EC50 is more than 10000 nM. The IC50 in assay [2] was not below 1000 nM. `CC1(C)C(=O)N(c2ccc(C#N)c(C(F)(F)F)c2)C(=S)N1Cc1ccc(-n2cnc(Cl)c2Cl)nc1` [Example 32, 4-(3-{[6-(4,5-Dichloro-1H-imidazol-1-yl)pyridin-3-yl]methyl}-4,4-dimethyl-5-oxo-2-thioxoimidazolidin-1-yl)-2-(trifluoromethyl)benzonitrile] came in with an EC50 in assay [1] of more than 10000 nM. Still for that read-out and setting: to `CC1(C)C(=O)N(c2ccc(C#N)c(C(F)(F)F)c2)C(=S)N1Cc1ccc(-n2cnc(C(F)(F)F)n2)nc1` [Example 33, 4-[4,4-Dimethyl-5-oxo-2-thioxo-3-({6-[3-(trifluoromethyl)-1H-1,2,4-triazol-1-yl]pyridin-3-yl}methyl)imidazolidin-1-yl]-2-(trifluoromethyl)benzonitrile] belongs more than 10000 nM. As to `CC1(C)C(=O)N(c2ccc(C#N)c(C(F)(F)F)c2)C(=S)N1Cc1ccc(-n2cnc(CO)c2)nc1` [Example 34, 4-[3-({6-[4-(Hydroxymethyl)-1H-imidazol-1-yl]pyridin-3-yl}methyl)-4,4-dimethyl-5-oxo-2-thioxoimidazolidin-1-yl]-2-(trifluoromethyl)benzonitrile], the EC50 in assay [1] was more than 10000 nM. Besides, the IC50 in assay [2] was determined as 259 nM; in assay [3] it was 331 nM. Molecule `CC1(C)C(=O)N(c2ccc(C#N)c(C(F)(F)F)c2)C(=S)N1Cc1ccc(OCCN2CCNC2=O)nc1` [Example 35, 4-[4,4-Dimethyl-5-oxo-3-({6-[2-(2-oxoimidazolidin-1-yl)ethoxy]pyridin-3-yl}methyl)-2-thioxoimidazolidin-1-yl]-2-(trifluoromethyl)benzonitrile] displayed an EC50 in assay [1] of more than 10000 nM. Further, 44.6 nM corresponded to half-maximal inhibition in assay [2] (IC50). Turning to `CC1(C)C(=O)N(c2ccc(C#N)c(C(F)(F)F)c2)C(=S)N1Cc1ccc(N2CCS(=O)(=NC#N)CC2)nc1` [Example 36, {4-[5-({3-[4-Cyano-3-(trifluoromethyl)phenyl]-5,5-dimethyl-4-oxo-2-thioxoimidazolidin-1-yl}methyl)pyridin-2-yl]-1-oxido-1λ^6,4-thiomorpholin-1-ylidene}cyanamide], in assay [1], the EC50 was more than 10000 nM. Besides, the IC50 was not below 1000 nM in assay [2] and 329 nM in assay [3]. For `Cc1nc(OCC(C)(C)O)ccc1CN1C(=S)N(c2ccc(C#N)c(C(F)(F)F)c2)C(=O)C1(C)C` [Example 37, 4-(3-{[6-(2-Hydroxy-2-methylpropoxy)-2-methylpyridin-3-yl]methyl}-4,4-dimethyl-5-oxo-2-thioxoimidazolidin-1-yl)-2-(trifluoromethyl)benzonitrile], in that order: more than 10000 nM, 241 nM and 323 nM. For the molecule `Cc1nnnn1-c1ccc(CN2C(=S)N(c3ccc(C#N)c(C(F)(F)F)c3)C(=O)C2(C)C)cn1` [Example 38, 4-(4,4-Dimethyl-3-{[6-(5-methyl-1H-tetrazol-1-yl)pyridin-3-yl]methyl}-5-oxo-2-thioxoimidazolidin-1-yl)-2-(trifluoromethyl)benzonitrile], the EC50 in assay [1] was more than 10000 nM. For the same molecule, in assay [2], the IC50 was 366 nM.
